PMC5218480 (PLoS ONE, 2017)

Test system: MV-4-11 cells
Test: Gene expression microarray analysis (Affymetrix PrimeView) and GSEA
Format: cell-based, human
Design: RFU PODN (11730768_x_at) / Fold change /veh PODN (11730768_x_at) / RFU LINC00158 (11744669_a_at) / Fold change /veh LINC00158 (11744669_a_at) / RFU DUSP10 (11751237_a_at) / Fold change /veh DUSP10 (11751237_a_at) / RFU ID3 (11757404_x_at) / Fold change /veh ID3 (11757404_x_at) / RFU PLEKHG5 (11737974_s_at) / Fold change /veh PLEKHG5 (11737974_s_at) / RFU LRRC4B (11730491_at) / Fold change /veh LRRC4B (11730491_at) / RFU GIMAP4 (11747438_a_at) / Fold change /veh GIMAP4 (11747438_a_at) / RFU KRT8 (11758183_x_at) / Fold change /veh KRT8 (11758183_x_at) / RFU CNN1 (11734310_a_at) / Fold change /veh CNN1 (11734310_a_at) / RFU VPS37D (11726825_at) / Fold change /veh VPS37D (11726825_at) / RFU C10orf10 (11716522_x_at) / Fold change /veh C10orf10 (11716522_x_at) / RFU KIR2DL2 /// KIR2DL4 /// KIR2DL5A /// KIR2DL5B /// KIR2DS1 /// KIR2DS2 /// KIR2DS3 /// KIR2DS4 /// KIR3DL3 /// KIR3DL3 /// KIR3DS1 (11738374_at) / Fold change /veh KIR2DL2 /// KIR2DL4 /// KIR2DL5A /// KIR2DL5B /// KIR2DS1 /// KIR2DS2 /// KIR2DS3 /// KIR2DS4 /// KIR3DL3 /// KIR3DL3 /// KIR3DS1 (11738374_at) / RFU C1QL1 (11718748_at) / Fold change /veh C1QL1 (11718748_at) / RFU TMPRSS4 (11747572_a_at) / Fold change /veh TMPRSS4 (11747572_a_at) / RFU HAMP (11756126_x_at) / Fold change /veh HAMP (11756126_x_at) / RFU RNFT2 (11725882_a_at) / Fold change /veh RNFT2 (11725882_a_at) / RFU NR4A2 (11747474_a_at) / Fold change /veh NR4A2 (11747474_a_at) / RFU ABCC12 (11746883_a_at) / Fold change /veh ABCC12 (11746883_a_at) / RFU TMEM136 (11760407_x_at) / Fold change /veh TMEM136 (11760407_x_at) / RFU CLDN22 /// WWC2 (11732394_at) / Fold change /veh CLDN22 /// WWC2 (11732394_at) / RFU HLA-DPB1 (11760878_x_at) / Fold change /veh HLA-DPB1 (11760878_x_at) / RFU SPINT1 (11716480_a_at) / Fold change /veh SPINT1 (11716480_a_at) / RFU GAP43 (11754022_s_at) / Fold change /veh GAP43 (11754022_s_at) / RFU A4GNT (11735810_at) / Fold change /veh A4GNT (11735810_at) / RFU PRB3 (11715151_x_at) / Fold change /veh PRB3 (11715151_x_at) / RFU TUBB4B (11761932_at) / Fold change /veh TUBB4B (11761932_at) / RFU CAPN14 (11732068_a_at) / Fold change /veh CAPN14 (11732068_a_at) / RFU TMCC2 (11721928_a_at) / Fold change /veh TMCC2 (11721928_a_at) / RFU IRGQ (11745062_a_at) / Fold change /veh IRGQ (11745062_a_at) / RFU FAM174B (11720279_a_at) / Fold change /veh FAM174B (11720279_a_at) / RFU TMPRSS4 (11748680_a_at) / Fold change /veh TMPRSS4 (11748680_a_at) / RFU FAM212B (11763350_a_at) / Fold change /veh FAM212B (11763350_a_at) / RFU PLEKHG5 (11743358_a_at) / Fold change /veh PLEKHG5 (11743358_a_at) / RFU ZSCAN30 (11745921_a_at) / Fold change /veh ZSCAN30 (11745921_a_at) / RFU CMKLR1 (11741424_a_at) / Fold change /veh CMKLR1 (11741424_a_at) / RFU LOC101060620 /// MAPK8IP1 (11723275_at) / Fold change /veh LOC101060620 /// MAPK8IP1 (11723275_at) / RFU SPTSSB (11747773_x_at) / Fold change /veh SPTSSB (11747773_x_at) / RFU PRSS12 (11739890_at) / Fold change /veh PRSS12 (11739890_at) / RFU BIN1 (11741810_x_at) / Fold change /veh BIN1 (11741810_x_at) / RFU WNT11 (11732464_a_at) / Fold change /veh WNT11 (11732464_a_at) / RFU C10orf10 (11716521_a_at) / Fold change /veh C10orf10 (11716521_a_at) / RFU C5orf56 (11738089_at) / Fold change /veh C5orf56 (11738089_at) / RFU CYB561 (11721691_x_at) / Fold change /veh CYB561 (11721691_x_at) / RFU ANKRD19P (11752326_a_at) / Fold change /veh ANKRD19P (11752326_a_at) / RFU OR2T12 /// OR2T33 /// OR2T8 (11738714_s_at) / Fold change /veh OR2T12 /// OR2T33 /// OR2T8 (11738714_s_at) / RFU VCAN (11748164_a_at) / Fold change /veh VCAN (11748164_a_at) / RFU JSRP1 (11732532_at) / Fold change /veh JSRP1 (11732532_at) / RFU KRTAP10-11 (11738290_x_at) / Fold change /veh KRTAP10-11 (11738290_x_at) / RFU MYO3A (11730013_a_at) / Fold change /veh MYO3A (11730013_a_at) / RFU EBF3 (11725865_a_at) / Fold change /veh EBF3 (11725865_a_at) / RFU CAMK2N1 (11719241_x_at) / Fold change /veh CAMK2N1 (11719241_x_at) / RFU C5orf56 (11738088_a_at) / Fold change /veh C5orf56 (11738088_a_at) / RFU OLFML3 (11715873_a_at) / Fold change /veh OLFML3 (11715873_a_at) / RFU LOC100653217 /// NTM (11731650_a_at) / Fold change /veh LOC100653217 /// NTM (11731650_a_at) / RFU MAPK11 (11762145_a_at) / Fold change /veh MAPK11 (11762145_a_at) / RFU FIZ1 (11724087_x_at) / Fold change /veh FIZ1 (11724087_x_at) / RFU OASL (11726364_x_at) / Fold change /veh OASL (11726364_x_at) / RFU SOX15 (11748057_x_at) / Fold change /veh SOX15 (11748057_x_at) / RFU CD79A (11719716_a_at) / Fold change /veh CD79A (11719716_a_at) / RFU HIST1H1D (11736915_at) / Fold change /veh HIST1H1D (11736915_at) / RFU CASKIN2 (11723855_a_at) / Fold change /veh CASKIN2 (11723855_a_at) / RFU LOC730098 (11760151_x_at) / Fold change /veh LOC730098 (11760151_x_at) / RFU OR4N2 (11742367_at) / Fold change /veh OR4N2 (11742367_at) / RFU PRRT2 (11749266_a_at) / Fold change /veh PRRT2 (11749266_a_at) / RFU SNX32 (11753110_a_at) / Fold change /veh SNX32 (11753110_a_at) / RFU CDHR5 (11726645_a_at) / Fold change /veh CDHR5 (11726645_a_at) / RFU RCAN1 (11760418_a_at) / Fold change /veh RCAN1 (11760418_a_at) / RFU FAM167A (11723789_a_at) / Fold change /veh FAM167A (11723789_a_at) / RFU FAM26E (11764081_at) / Fold change /veh FAM26E (11764081_at) / RFU ISYNA1 (11749810_s_at) / Fold change /veh ISYNA1 (11749810_s_at) / RFU ACY1 (11761880_at) / Fold change /veh ACY1 (11761880_at) / RFU 11764098_at / Fold change /veh 11764098_at / RFU SAMD14 (11745864_x_at) / Fold change /veh SAMD14 (11745864_x_at) / RFU NPB (11741838_a_at) / Fold change /veh NPB (11741838_a_at) / RFU TMPRSS6 (11731388_a_at) / Fold change /veh TMPRSS6 (11731388_a_at) / RFU KRTAP10-2 (11738614_at) / Fold change /veh KRTAP10-2 (11738614_at) / RFU ARHGAP8 /// PRR5-ARHGAP8 (11727945_x_at) / Fold change /veh ARHGAP8 /// PRR5-ARHGAP8 (11727945_x_at) / RFU KRTAP5-7 /// NADSYN1 (11734609_at) / Fold change /veh KRTAP5-7 /// NADSYN1 (11734609_at) / RFU RASL12 (11751679_a_at) / Fold change /veh RASL12 (11751679_a_at) / RFU CDKN2B (11736163_a_at) / Fold change /veh CDKN2B (11736163_a_at) / RFU PRF1 (11729649_at) / Fold change /veh PRF1 (11729649_at) / RFU, ZNF638 /// ZNF638-IT1 / Fold change vs veh, ZNF638 /// ZNF638-IT1 / RFU, PANK3 / Fold change vs veh, PANK3 / RFU, SH3YL1 / Fold change vs veh, SH3YL1 / RFU, ZEB2 / Fold change vs veh, ZEB2 / RFU, NRIP1 / Fold change vs veh, NRIP1 / RFU, PTTG1IP / Fold change vs veh, PTTG1IP / RFU, CAPN2 / Fold change vs veh, CAPN2 / RFU, MED14 / Fold change vs veh, MED14 / RFU, SNORA58 / Fold change vs veh, SNORA58 / RFU, C1orf63 / Fold change vs veh, C1orf63 / RFU, LRRFIP1 / Fold change vs veh, LRRFIP1 / RFU, NDUFAF7 / Fold change vs veh, NDUFAF7 / RFU, SLC12A2 / Fold change vs veh, SLC12A2 / RFU, IBTK / Fold change vs veh, IBTK / RFU, ESF1 / Fold change vs veh, ESF1 / Fold change vs veh, TMEM50B / RFU, TAOK1 / Fold change vs veh, TAOK1 / RFU, ACBD3 / Fold change vs veh, ACBD3 / RFU, TMA16 / Fold change vs veh, TMA16 / RFU, RWDD3 / Fold change vs veh, RWDD3 / RFU, BCAT1 / Fold change vs veh, BCAT1 / RFU, EDEM3 / Fold change vs veh, EDEM3 / RFU, TMEM33 / Fold change vs veh, TMEM33 / RFU, WDR75 / Fold change vs veh, WDR75 / RFU, AHCTF1 / Fold change vs veh, AHCTF1 / RFU, TFRC / Fold change vs veh, TFRC / RFU, ZDHHC17 / Fold change vs veh, ZDHHC17 / RFU, NOM1 / Fold change vs veh, NOM1 / RFU, ARL8B / Fold change vs veh, ARL8B / RFU, ZBTB11 / Fold change vs veh, ZBTB11 / RFU, TAMM41 / Fold change vs veh, TAMM41 / RFU, KIAA1704 /// LOC100996395 / Fold change vs veh, KIAA1704 /// LOC100996395 / RFU, ING1 / Fold change vs veh, ING1 / RFU, TRMT61B / Fold change vs veh, TRMT61B / RFU, FUBP3 / Fold change vs veh, FUBP3 / RFU, TP53 / Fold change vs veh, TP53 / RFU, TNKS2 / Fold change vs veh, TNKS2 / RFU, ZFP14 / Fold change vs veh, ZFP14 / RFU, ACTR2 / Fold change vs veh, ACTR2 / RFU, PPP3R1 / Fold change vs veh, PPP3R1 / RFU, PIK3R1 / Fold change vs veh, PIK3R1 / RFU, HNRNPA1 / Fold change vs veh, HNRNPA1 / RFU, RNF170 / Fold change vs veh, RNF170 / RFU, ZNF28 / Fold change vs veh, ZNF28 / RFU, RNGTT / Fold change vs veh, RNGTT / RFU, OGT / Fold change vs veh, OGT / RFU, BRD1 / Fold change vs veh, BRD1 / RFU, MARS / Fold change vs veh, MARS / RFU, ZNF655 / Fold change vs veh, ZNF655 / RFU, FAHD1 / Fold change vs veh, FAHD1 / RFU, BDP1 / Fold change vs veh, BDP1 / RFU, LRRCC1 / Fold change vs veh, LRRCC1 / RFU, ARID1A / Fold change vs veh, ARID1A / RFU, ZNF146 / Fold change vs veh, ZNF146 / RFU, ZNF330 / Fold change vs veh, ZNF330 / RFU, GPN3 / Fold change vs veh, GPN3 / RFU, C9orf123 / Fold change vs veh, C9orf123 / RFU, N4BP2L2 / Fold change vs veh, N4BP2L2 / RFU, ARFIP1 / Fold change vs veh, ARFIP1 / RFU, FAM179B / Fold change vs veh, FAM179B / RFU, BCL10 / Fold change vs veh, BCL10 / RFU, UHRF1BP1L / Fold change vs veh, UHRF1BP1L / RFU, BET1 / Fold change vs veh, BET1 / RFU, CNOT2 / Fold change vs veh, CNOT2 / RFU, ZNF268 / Fold change vs veh, ZNF268 / Fold change vs veh, ZNF507 / RFU, DGCR2 / Fold change vs veh, DGCR2 / RFU, WDSUB1 / Fold change vs veh, WDSUB1 / Fold change vs veh, HSP90B1 /// MIR3652 / RFU, ADSS / Fold change vs veh, ADSS / RFU, GK / Fold change vs veh, GK / RFU, ZNF148 / Fold change vs veh, ZNF148 / RFU, TAF9 / Fold change vs veh, TAF9 / RFU, SLC1A5 / Fold change vs veh, SLC1A5 / RFU, SLMO2 / Fold change vs veh, SLMO2 / RFU, ABCC4 / Fold change vs veh, ABCC4 / RFU, LOC101060439 /// RAP1B / Fold change vs veh, LOC101060439 /// RAP1B / RFU, RFX7 / Fold change vs veh, RFX7 / RFU, GTPBP10 / Fold change vs veh, GTPBP10 / RFU, CNEP1R1 / Fold change vs veh, CNEP1R1 / RFU, BIVM-ERCC5 /// ERCC5 / Fold change vs veh, BIVM-ERCC5 /// ERCC5 / RFU, ILF3 / Fold change vs veh, ILF3 / RFU 11762660_at / Fold change /veh 11762660_at / RFU VCAN (11757783_s_at) / Fold change /veh VCAN (11757783_s_at) / RFU DDX43 (11728927_at) / Fold change /veh DDX43 (11728927_at) / RFU KRT8 (11758188_x_at) / Fold change /veh KRT8 (11758188_x_at) / RFU NKD1 (11759106_at) / Fold change /veh NKD1 (11759106_at) / RFU SRD5A1 (11742802_a_at) / Fold change /veh SRD5A1 (11742802_a_at) / RFU TPSAB1 /// TPSB2 (11721975_s_at) / Fold change /veh TPSAB1 /// TPSB2 (11721975_s_at) / RFU GSTM3 (11746129_a_at) / Fold change /veh GSTM3 (11746129_a_at) / RFU IL23R (11737362_x_at) / Fold change /veh IL23R (11737362_x_at) / RFU TMEM51 (11727254_a_at) / Fold change /veh TMEM51 (11727254_a_at) / RFU PIWIL2 (11732686_x_at) / Fold change /veh PIWIL2 (11732686_x_at) / RFU ORM1 (11744905_x_at) / Fold change /veh ORM1 (11744905_x_at) / RFU CCDC152 (11743942_at) / Fold change /veh CCDC152 (11743942_at) / RFU ECM1 (11717891_a_at) / Fold change /veh ECM1 (11717891_a_at) / RFU IL23R (11748794_a_at) / Fold change /veh IL23R (11748794_a_at) / RFU TNFAIP8L3 (11732012_x_at) / Fold change /veh TNFAIP8L3 (11732012_x_at) / RFU MBOAT4 (11741988_at) / Fold change /veh MBOAT4 (11741988_at) / RFU 11764193_at / Fold change /veh 11764193_at / RFU TMEM53 (11763286_at) / Fold change /veh TMEM53 (11763286_at) / RFU MAGEB2 (11727129_at) / Fold change /veh MAGEB2 (11727129_at) / RFU TMEM200A (11744735_a_at) / Fold change /veh TMEM200A (11744735_a_at) / RFU CCDC152 (11751479_a_at) / Fold change /veh CCDC152 (11751479_a_at) / RFU FAM211A (11726209_a_at) / Fold change /veh FAM211A (11726209_a_at) / RFU RGS16 (11746705_a_at) / Fold change /veh RGS16 (11746705_a_at) / RFU VCAN (11755009_s_at) / Fold change /veh VCAN (11755009_s_at) / RFU RHOB (11743442_s_at) / Fold change /veh RHOB (11743442_s_at) / RFU RGS16 (11720943_a_at) / Fold change /veh RGS16 (11720943_a_at) / RFU RGS16 (11720944_at) / Fold change /veh RGS16 (11720944_at) / RFU, VPS4B / Fold change vs veh, VPS4B / RFU, CREB1 / Fold change vs veh, CREB1 / RFU, DNAJC13 / Fold change vs veh, DNAJC13 / RFU, GNAQ / Fold change vs veh, GNAQ / RFU, CDK5R1 / Fold change vs veh, CDK5R1 / RFU, ZRANB3 / Fold change vs veh, ZRANB3 / RFU, CUL4A / Fold change vs veh, CUL4A / RFU, CCNY / Fold change vs veh, CCNY / RFU, UFL1 / Fold change vs veh, UFL1 / RFU, COG3 / Fold change vs veh, COG3 / RFU, DIAPH2 / Fold change vs veh, DIAPH2 / RFU, SKA2 / Fold change vs veh, SKA2 / RFU, AFF3 / Fold change vs veh, AFF3 / RFU, LMF1 / Fold change vs veh, LMF1 / RFU, IPO11 / Fold change vs veh, IPO11 / RFU, DFFB / Fold change vs veh, DFFB / RFU, FOXP1 / Fold change vs veh, FOXP1 / RFU, CARD8 / Fold change vs veh, CARD8 / RFU, STRN3 / Fold change vs veh, STRN3 / RFU, ADK / Fold change vs veh, ADK / RFU, RASSF2 / Fold change vs veh, RASSF2 / RFU, WIPF1 / Fold change vs veh, WIPF1 / RFU, LARP1B / Fold change vs veh, LARP1B / RFU, RASA1 / Fold change vs veh, RASA1 / RFU, RB1 / Fold change vs veh, RB1 / RFU, PPFIA1 / Fold change vs veh, PPFIA1 / RFU, MAT2A / Fold change vs veh, MAT2A / RFU, CCT5 / Fold change vs veh, CCT5 / RFU, WDR92 / Fold change vs veh, WDR92 / RFU, CUX1 / Fold change vs veh, CUX1 / RFU, TTC7A / Fold change vs veh, TTC7A / RFU, TMEM135 / Fold change vs veh, TMEM135 / RFU, DEPTOR / Fold change vs veh, DEPTOR / RFU, CPM / Fold change vs veh, CPM / RFU, DNAJB6 / Fold change vs veh, DNAJB6 / RFU, CACNA2D3 / Fold change vs veh, CACNA2D3 / RFU, DTX4 / Fold change vs veh, DTX4 / RFU, TFCP2 / Fold change vs veh, TFCP2 / RFU, GMCL1 /// GMCL1P1 / Fold change vs veh, GMCL1 /// GMCL1P1 / RFU, AEBP2 / Fold change vs veh, AEBP2 / RFU, SNHG1 /// SNORD22 /// SNORD25 /// SNORD26 /// SNORD27 /// SNORD28 /// SNORD29 /// SNORD31 / Fold change vs veh, SNHG1 /// SNORD22 /// SNORD25 /// SNORD26 /// SNORD27 /// SNORD28 /// SNORD29 /// SNORD31 / Fold change (Aza/veh), C12orf56 (ProbeSet 11735607_a_at) / Fold change (ACY-1035/veh), C12orf56 (ProbeSet 11735607_a_at) / Fold change (Aza/veh), FGFR1OP (ProbeSet 11751329_s_at) / Fold change (ACY-1035/veh), FGFR1OP (ProbeSet 11751329_s_at) / Fold change (Aza/veh), VPS36 (ProbeSet 11739960_a_at) / Fold change (ACY-1035/veh), VPS36 (ProbeSet 11739960_a_at) / RFU SYPL1 (11715823_x_at) / Fold change /veh SYPL1 (11715823_x_at) / RFU IGFBP7 (11715501_s_at) / Fold change /veh IGFBP7 (11715501_s_at) / RFU REEP3 (11722064_at) / Fold change /veh REEP3 (11722064_at) / RFU IGLL1 (11728026_x_at) / Fold change /veh IGLL1 (11728026_x_at): dose or concentration left out as unconfirmed
Settings: MV-4-11 cells, 48 hours

Nc1ncn([C@@H]2O[C@H](CO)[C@@H](O)[C@H]2O)c(=O)n1 [azacitidine]
RFU IL23R (11748794_a_at): 8.76 RFU
